From patent US20220323476A1, “ANTIVIRAL PRODRUGS AND FORMULATIONS THEREOF” (priority 2019, published 2022)

Legend:
[1] = Single dose rhesus macaque PK, subcutaneous aqueous suspension, plasma EFdA by LC-MS/MS
Procedure: The aqueous suspension formulations were derived from 0.25;% CMC-Na and 0.1;%/0.5% TWEEN-80 with equivalent concentration of 116 mg/mL and 319 mg/mL of EFdA for prodrug 5 and EFdA respectively.

[2] = Single dose rat PK, subcutaneous aqueous suspension, plasma EFdA by LC-MS/MS; conditions: SC; for Cmax compared with EFdA itself / time with plasma levels of EFdA above LLOQ: single dose, 10 mg/kg equivalent of EFdA, 4 mg/mL, 0.5% CMC-Na/0.5% TWEEN-80
Procedure: Animals (Male SD rats ˜200-250 g and Male rhesus macaques ˜2-3 kg) were obtained from an approved vendor (SLAC Laboratory Animal Co. Ltd., Shanghai, China and/or Topgene Biotechnology, Wuhan city, Hubei Province, China).
Animals were fasted at least 12 hours prior to the administration. All animals had access to Certified Rodent and non-Rodent Diet (Catalog #M01-F, SLAC Laboratory Animal Cl. Ltd., Shanghai, China) ad libitum 4 hours post dosing.
The formulations were prepared on the day of dosing. Animals were dosed within four hours after the formulation is prepared. Two 20 μL aliquots of each formulation were removed from each of the formulation solutions, transferred into 1.5 mL of polypropylene microcentrifuge tubes and run dose validation by LC/UV or LC-MS/MS.
For SC dosing, the dose formulation was administered via subcutaneous injection following facility SOPs.
Approximately 200 μL blood was collected from saphenous vein at each time point for rats and 0.5 mL for rhesus macaques. All blood samples were transferred into microcentrifuge tubes containing 4 μL of K2EDTA (0.5M) as anti-coagulant and placed on wet ice until processed for plasma.
Blood: Blood samples were processed for plasma by centrifugation at approximately 4° C., 3000 g 15 min within half an hour of collection. Plasma samples was stored in polypropylene tubes, quick frozen over dry ice and kept at −70±10° C. until LC/MS/MS analysis.
If the carryover couldn't meet the criteria, then the percent of carryover should be estimated following in-house bioanalytical SOP.
Plasma concentration versus time data was analyzed by non-compartmental approaches using the Phoenix WINNONLIN 6.3 software program. Cmax, Tmax, T1/2, AUC(0-t), AUC(0-inf), MRT(0-t), MRT(0-inf), % F and graphs of plasma concentration versus time profile were reported.
Several prodrugs including EFdA (1) as a control were subjected to a single dose rat PK studies via subcutaneous route of administration. All were injected with equivalent doses of 10 mg/kg and concentration of 4 mg/mL of EFdA as an aqueous suspension formulation derived from 0.5% CMC-Na and 0.5% TWEEN-80.

[3] = Aqueous solubility (pH 7.4); conditions: aqueous medium at pH 7.4, pH 7.4, aqueous buffer
[4] = male, rhesus monkey, plasma, sc, 50 mg/kg

In the case of C#C[C@]1(CO)O[C@@H](n2cnc3c(N)nc(F)nc32)C[C@@H]1O [Compound 1, (2R,3S,5R)-5-(6-amino-2-fluoro-9H-purin-9-yl)-2-ethynyl-2-(hydroxymethyl) tetrahydrofuran-3-ol], the AUC(0-inf) [1, 4] is reported as 135 ± 22.7 µM·h and the half-life [1, 4] is reported as 69 ± 14 h.
In the case of C#C[C@]1(COC(=O)C(C)C)O[C@@H](n2cnc3c(N)nc(F)nc32)C[C@@H]1OC(=O)C(C)C [Compound 2, (2R,3S,5R)-5-(6-amino-2-fluoro-9H-purin-9-yl)-2-ethynyl-2-((isobutyryloxy)methyl) tetrahydrofuran-3-yl isobutyrate], the “Cmax compared with EFdA itself” value [2] is reported as “much lower than EFdA itself” and the “time with plasma levels of EFdA above LLOQ” value (“time with plasma levels” below) [2] is reported as “more than a week”.
For C#C[C@]1(COC(=O)C(CC)CC)O[C@@H](n2cnc3c(N)nc(F)nc32)C[C@@H]1OC(=O)C(CC)CC [Compound 3, (2R,3S,5R)-5-(6-amino-2-fluoro-9H-purin-9-yl)-2-(((2-ethylbutanoyl)oxy)methyl)-2-ethynyltetrahydrofuran-3-yl 2-ethylbutanoate], the solubility [3] was < 2 µg/mL, the “half life and mean residence life compared with EFdA” value ([2]; 100 mg/kg equivalent dose, 120 mg/mL (prodrug 3) vs 319 mg/mL (EFdA)) was “Enhanced” and the “Cmax compared with EFdA itself” value [2] was “much lower than EFdA itself”. For the same molecule, the “time with plasma levels” value [2] was “more than a week”.
With C#C[C@]1(COC(=O)Cc2ccccc2)O[C@@H](n2cnc3c(N)nc(F)nc32)C[C@@H]1OC(=O)Cc1ccccc1 [Compound 5, (2R,3S,5R)-5-(6-amino-2-fluoro-9H-purin-9-yl)-2-ethynyl-2-((2-phenylacetoxy)methyl) tetrahydrofuran-3-yl 2-phenylacetate] the solubility [3] was < 2 µg/mL, the “Cmax compared with EFdA itself” value [2] was “much lower than EFdA itself” and the “time with plasma levels” value [2] was “more than a week”. The “time with plasma levels” value ([1]; rhesus macaque, SC, single dose, 50 mg/kg equivalent of EFdA, 116 mg/mL) was “more than a month”.
For C#C[C@]1(COC(=O)CN)O[C@@H](n2cnc3c(N)nc(F)nc32)C[C@@H]1OC(=O)CN [Compound 14], the solubility [3] was > 106000 µg/mL.
